Measurements taken from patent US5597798A, “Taxol and epidermal growth factor used to enhance treatment of ovarian cancer” (The Regents of the University of California, priority 1994, dated 1997).

Test system: 2008 cells
Test: Cellular accumulation of [195mPt]DDP
Format: cell-based, human
Conditions: 60 min
Experimental: Cell-associated ^195m Pt was determined by as a measure of DDP accumulation. For DDP accumulation studies, subconfluent monolayers were treated with 37° C. RPMI 1640 medium containing 20 μM [^195m Pt]-DDD. The dishes were immediately returned to the incubater. After 1 h incubation, the medium was aspirated, the cells were washed rapidly with 4° C. PBS 4 times. Two ml of 1N NaOH was added and the cells allowed to digest overnight. A forty μl aliquot was used for determination of protein content by the method of Bradford (Bradford, Anal. Biochem. 72:248-254 (1976)), and the remaining […] was counted in glass tubes on a Trak 1191 gamma counter (Tracer Analytic, EIK Grove Village, Ill.). Columns represent the mean values of 3 experiments performed with duplicate cultures. The bars represent the standard deviation.
Cultured 2008 cells were treated concurrently with [^195m Pt]DDP and TPA for 60 min. A vehicle control consisting of an appropriate dilution of acetone was run concurrently. […] Cells treated with medium alone contained 140±13 pmol/mg of protein, whereas those treated with the acetone control contained 141±7 pmol/mg of protein, and those treated with TPA contained 143±21 pmol/mg of protein.

N.N.[Cl][Pt][Cl] [cisplatin]
cellular accumulation of [195mPt]DDP (medium alone): 140±13 pmol/mg of protein | cellular accumulation of [195mPt]DDP (treated concurrently with TPA): 143±21 pmol/mg of protein
